Assays:
[1] = tested on: ovariectomized mouse model (OVX); test: Ovariectomized (OVX) mouse osteoporosis model, tibia micro-computed tomography; type: in vivo; settings: OVX mice, intraperitoneal once every two days, after 4 weeks, microcomputer tomography; FIGS. 11 to 14
Experimental: An ovariectomized mouse model (OVX, ovariectomized mouse) with osteoporosis due to estrogen deficiency after ovariectomy in 8-week-old female mouse were prepared. Compounds (35D35, 35D5, and 35D3), respectively, were injected intraperitoneally once every two days to the ovariectomized mouse model. After 4 weeks, the tibia of each mouse was analyzed for bone density by microcomputer tomography.
FIGS. 11 to 14 show the micro-computed tomography results (Sham: the control in which the ovaries were not removed) and graphs for analysis of the micro-computed tomography results with regard to the tibia of the mouse models (*P<0.05, **P<0.01, and ***P<0.001 vs. the control, OVX. BMD: trabecular bone mineral density).

[2] = tested on: F-actin formation in mouse bone marrow cells; test: F-actin staining for differentiation into multinuclear cells, 35D3 (PPOA); type: cell-based; settings: 6 uM, cultured 4 to 5 days; FIG. 18
Experimental: In order to determine the activity of differentiated osteoclasts, an ability of differentiating into multinuclear cells was measured through F-actin staining. 5×10^4 mouse bone marrow cells per well was put into a 24-well plate in which glass coated with L-Lysine was placed (Corning, 354085). At the same time, the cells were treated with 6 uM of 35D3 (PPOA) and then cultured for 4 to 5 days. The differentiated cells were fixed with 4% formaldehyde for 10 minutes and washed with PBS. For an antigen-antibody reaction, the cells were subjected to a reaction in 0.1% Triton-PBS for 20 minutes, followed by a reaction with 1% BSA for 1 hour. The F-actin antibody (Thermo Fisher Scientific, A12379) was reacted for 1 hour and then washed. Cell nuclei were stained through DAPI (4′,6-Diamidino-2-Phenylindole, Dilactate, Thermo Fisher Scientific, D3571) staining, and then, photographed under a microscope. As a result, it was confirmed that the size of F-actin was different depending on the presence or absence of 35D3 (PPOA) treatment (see FIG. 18).

[3] = tested on: osteoclast differentiation of monocytes isolated from the mouse bone marrow; test: Osteoclast differentiation inhibitory ability through TRAP staining and assay (RANKL-induced monocytes); type: cell-based; settings: for degree of osteoclast differentiation by TRAP staining: treated together with RANKL, compared to other derivatives, FIG. 1
Experimental: The bone marrow of a 10-week-old female mouse was isolated from the hip bone, femur and tibia, followed by culturing the same in α-MEM medium (Gibco, 12561-056, 10% fetal bovine serum, 1% penicillin/streptomycin) containing macrophage colony stimulating factor (M-CSF, PeproTech, 315-02, 30 ng/ml) for 3 days in order to isolate only monocytes. The isolated monocytes were treated with receptor activator of nuclear factor kappa B ligand (RANKL, PeproTech, 315-11, 50 ng/ml) to induce osteoclast differentiation. During RANKL treatment, each compound (35D35, 35D5, 35D3, and 35D8) was used for treatment and the cells were cultured for 3 or 5 days so as to confirm the degree of osteoclast differentiation.
1×10^4 monocytes isolated from the mouse bone marrow were put into a 96-well plate and treated with each compound (35D35, 35D5, 35D3, and 35D8) together with RANKL, thereby confirming the effects of each compound on osteoclast differentiation ability. Using the TRAP activity assay kit (Cosmo Bio, PMC-AK04F-COS), the activity of tartrate-resistant acid phosphatase (TRAP) with increased expression during osteoclast differentiation was confirmed. […] After staining, multinuclear cells formed during osteoclast differentiation were confirmed under a microscope. Further, each well was photographed and a differentiation area ratio per total area was determined using Image J software.
Further, the effects of the 35D35 compound having excellent osteoclast production inhibitory ability with respect to osteoclast differentiation period was investigated. Specifically, BMM was divided into 5 groups (Ctrl, Period I to IV), and cultured for 4 days in a culture medium containing 30 ng/mL M-CSF and 50 ng/mL RANKL. BMMs in Period I to IV groups were exposed to 1 μM 35D35 for 24 hours on different days, respectively. After 4 days, the cells of each group were fixed, followed by TRAP staining, and then, the presence of osteoclasts was confirmed.

[4] = tested on: bone resorption ability of osteoclasts (mouse bone marrow cells); test: Bone resorption assay kit, 35D3 (PPOA); type: cell-based; settings: exposure to 3, 6, and 10 μM; FIG. 19
Experimental: Further, the bone resorption ability was confirmed using a bone resorption assay kit (Cosmo Bio, CSR-BRA). Mouse bone marrow cells were seeded on a bone resorption assay plate 48 (2×10^4 cells/well) containing 30 ng/Ml of M-CSF. […] The next day, the culture supernatant from the cells was collected on a 96-well black polypropylene micro-well plate (Thermo Fisher Scientific Nunc, Waltham, Md., USA). After mixing 50 μL of 0.1 N of NaOH, fluorescence intensity was measured with a fluorescence plate reader (Molecular Devices, San Jose, Calif., USA-model: SpectraMax i3x); and the excitation and emission wavelengths were […] and 535 nm, respectively. The absorption area was calculated in consideration of 10 randomly selected pictures per well taken at 10 magnification using Image J software (https://imagej.nih.gov/ij).

[5] = tested on: preosteoclasts; test: MTT assay for cytotoxicity assessment (cell viability); type: cell-based, mouse; settings: MCSF 30 ng/mL, concentration of 10 uM
Experimental: MTT Assay for Cytotoxicity Assessment
After treatment of preosteoclasts with 35D35 or 35D3 (=PPOA) (1-10 uM), cell viability was evaluated. Specifically, 1×10^4 cells per well were put into a 96-well plate, and only MCSF (30 ng/mL) and PPOA were cultured by day under the indicated concentration conditions. Thereafter, a cell viability assay reagent (DoGen, EZ-3000) was used with 1/10 of the volume of the medium for treatment, and then the cells were incubated at 37° C. for 30 minutes and observed at […]. […] That is, it was confirmed that there was no cytotoxicity.

[6] = tested on: osteoclast differentiation of monocytes isolated from the mouse bone marrow; test: Osteoclast differentiation inhibitory ability of 35D3 (PPOA) through TRAP staining and analysis; type: cell-based; settings: 3 μM, compared to group in which osteoclasts were differentiated normally
Experimental: The bone marrow of a 12-week-old female mouse was isolated from the hip bone, femur and tibia, followed by culturing the same in α-MEM medium (Gibco, 12561-056, 10% fetal bovine serum, 1% penicillin/streptomycin) containing macrophage colony stimulating factor (M-CSF, PeproTech, cat #315-02, 30 ng/ml) for 3 days in order to isolate only monocytes. The isolated monocytes were treated with RANKL (PeproTech, cat #315-11, 50 ng/ml) to induce osteoclast differentiation. Then, 35D3 (PPOA) was also used for treatment, followed by culturing the cells for 3 days or 5 days.
1×10^4 monocytes isolated from the mouse bone marrow were put into a 96-well plate and treated with RANKL to confirm the effect of 35D3 (PPOA) (3 μM) on osteoclast differentiation ability.
The activity of tartrate-resistant acid phosphatase (TRAP), which has increased expression during osteoclast differentiation, was confirmed using a TRAP activity assay kit (Sigma-Aldrich, 387A-1kt), which is shown in FIG. 16.
After staining, the multinuclear cells formed during osteoclast differentiation were observed under a microscope, and 12 images per well were photographed and combined into one well image, and a differentiation area ratio per total area was confirmed using Image J software. The differentiation area ratio per total area is shown in A of FIG. 17, and the area of TRAP-positive cells (nuclear number >3) was compared with DMSO (100%) and presented as a relative value.
Further, the number of differentiated osteoclasts was counted and determined, and this was shown in B of FIG. 17, and cells in which the number of cell nuclei contained in the differentiated osteoclasts is in the range of 3-5, 6-10, 11-20, and 21 or more, were classified and shown in C of FIG. 17.

[7] = tested on: RANKL-induced F-actin belt formation in BMM; test: F-actin ring (belt) formation ability of differentiated osteoclasts; type: cell-based, mouse; settings: for inhibition of RANKL-induced F-actin belt formation: FIG. 5
Experimental: In order to confirm the activity of differentiated osteoclasts, F-actin ring formation ability was measured. Specifically, BMM was seeded on a 12 mm cover glass with or without compounds (35D3: 6 μM, 35D5 and 35D35: 2 μM), followed by M-CSF and LANKL treatment. After the osteoclasts were formed in the control, the osteoclasts were fixed in 4.0% paraformaldehyde for 15 minutes, and then incubated in 5% FBS and blocked for about 60 minutes. After washing with PBS, rhodamine-conjugated phalloidin (1:40) was added to each well to visualize a F-actin belt. After 20 minutes, the cells were incubated along with a DAPI (1:5000) solution for 5 minutes. After washing three times with PBS, cells were observed using a fluorescence microscope.
A F-actin size was measured using Image J.

[8] = tested on: Ctsk protein expression in osteoclasts; test: Immunoblotting with anti-Ctsk antibody; type: cell-based, mouse; settings: 35D35 1 μM compared to 35D3 6 μM; FIG. 9
Experimental: (§1) In order to confirm the expression degree of the osteoclast-specific gene, an mRNA expression level was measured by RT-PCR in cells treated with 35D35 (1 μM) and 35D3 (6 μM) compounds, respectively. RNA was isolated from cells differentiated into osteoclasts using an RNA extraction kit, and cDNA was synthesized from 0.5 μg of RNA, which was quantified through a spectrophotometer, using a reverse transcriptase (Takara, RR037 A). Thereafter, QRT-PCR was performed using cDNA synthesized by QuantStudio 3 real-time PCR system (Applied Biosystems). After treating the cells with lysates, immunoblotting was conducted with an anti-Ctsk antibody. At this time, β-actin was used as a loading control.

[9] = tested on: bone resorption ability of osteoclasts (BMM); test: Bone resorption assay kit (fluoresceinamine-labeled calcium phosphate plate); type: cell-based, mouse; settings: 0.5 uM, 6 days, compared to control cells not treated (Ctrl); FIG. 7
Experimental: In addition, the bone resorption ability of 35D35 was measured using a bone resorption assay kit (Cosmo Bio, CSR-BRA). Specifically, BMM was seeded on a fluoresceinamine-labeled calcium phosphate plate, followed by 35D35 treatment with various doses. After 6 days, a fluorescence intensity was measured at absorption and emission wavelengths of 485 nm and 535 nm, respectively, using a fluorescent reader. Further, a resorption pit area was calculated using Image J. As a result, it was confirmed that the bone resorption ability was reduced by about 10% in the cells treated with 0.5 uM of 35D35, as compared to the control cells not treated with the compound (Ctrl) (see FIG. 7, scale bar=200 μm, “Con”=M-CSF+RANKL treatment group, “M”=M-CSF treatment group).

[10] = tested on: hBMP2-induced osteoblast differentiation of precursor cells from mouse skull; test: ALP staining for analysis of osteoblast differentiation ability; type: cell-based, C57BL/6J mouse; settings: hBMP2 100 ng/ml, 7 days; FIG. 10
Experimental: After collecting cells from C57BL/6J mouse calvara at the age of 3 days, the cells were seeded on a 96-well plate in an amount of 4×10^3 cells per well, and then treated with 100 ng/ml of hBMP2 as a differentiation inducer. Simultaneously with the differentiation inducer treatment, the cells were treated with the 35D35 compound and cultured for 7 days, followed by ALP staining to assess differentiation influence. Specific experimental methods and results are as follows.
Precursor cells isolated from the mouse skull were treated with hBMP2 (Bone morphogenic protein 2, Sino biological, 10426-HNAE, 100 ng/ml) to induce differentiation into osteoblasts. Differentiated osteoblasts could be discriminated through alkaline phosphatase (ALP) staining as an osteoblast-specific protein. When the progenitor cells were treated with hBMP2, each of the 35D35 compounds was also used for treatment, followed by culturing the cells for 7 days while changing the medium every 2 to 3 days. […]
After discarding the ethanol, the remaining product was washed with HBSS, followed by adding a NBT solution (Sigma, B1911) in an amount of 100 μl per well and staining for 15 minutes. […] After ALP staining, a degree of color development was measured using Image J software, and then graphed for comparison.

[11] = tested on: osteoclast-specific genes AcP5 (TRAP), NFATc1, DC-STAMP, ATP6v0d2, MMP9 and CTSK; test: RT-PCR of osteoclast-specific gene mRNA expression; type: cell-based, mouse; settings: 1 μM, compared to the control not treated (Ctrl); FIG. 8
Experimental: as §1

Row | Structure (SMILES) | bone density of tibia vs control (OVX) [1] | bone volume of tibia vs control (OVX) [1] | differentiation into multinuclear cells (size of F-actin) [2] | degree of osteoclast differentiation by TRAP staining [3] | proportion of bone resorption area [4] | cytotoxicity (cell viability, apoptosis effects) [5] | giant multinuclear cells ([6]; FIG. 17) | number of osteoclasts ([6]; FIG. 17) | differentiation area (TRAP-positive cells per total area) ([6]; FIGS. 16 and 17) | inhibition of RANKL-induced F-actin belt formation ([7]; 6 μM) | Ctsk protein expression [8] | osteoclast differentiation by exposure period (TRAP staining) ([3]; 1 μM for 24 hours on different days, 4 days culture with M-CSF and RANKL, exposure in initial 24 hours, FIG. 4) | osteoclast differentiation area ratio per total area (TRAP staining, Image J) ([3]; concentration of 0.5 uM, FIG. 2) | reduction of bone resorption ability [9] | effect on osteoblast differentiation (ALP staining intensity) [10] | amount of mRNA expression of osteoclast-specific genes AcP5 (TRAP), NFATc1, DC-STAMP, ATP6v0d2, MMP9 and CTSK [11] | decrease of F-actin ring formation ability ([7]; 0.5 uM, F-actin size by Image J, FIG. 6) [%] | inhibition of RANKL-induced F-actin belt formation ([7]; 2 μM)
1 | CC(=O)N1CCN(c2ccccc2NC(=O)COc2ccccc2Cl)CC1 [35D3, N-(2-(4-acetylpiperazin-1-yl)phenyl)-2-(2-chlorophenoxy)acetamide] | did not exhibit higher | did not exhibit higher | could inhibit differentiation into multinuclear cells | superior osteoclast differentiation inhibitory effects compared to other derivatives | significant decrease | apoptosis effects were not exhibited | significantly reduced | significantly reduced | significantly reduced | excellent effects of inhibiting RANKL-induced F-actin belt formation | – | – | – | – | – | – | – | –
2 | CCC(=O)N1CCN(c2ccccc2NC(=O)COc2ccccc2Cl)CC1 [35D35, 2-(2-chlorophenoxy)-N-[2-(4-propionyl-1-piperazinyl)phenyl]acetamide] | higher | higher | – | superior osteoclast differentiation inhibitory effects compared to other derivatives | – | apoptosis effects were not exhibited | – | – | – | – | strongly inhibited even at a low concentration | osteoclast differentiation was inhibited for the initial 24 hours | effective osteoclast differentiation inhibitory ability | about 10% | did not affect osteoblasts | decreased | ≥ 50 | excellent effects of inhibiting RANKL-induced F-actin belt formation

From patent publication US20220274935A1, “PHARMACEUTICAL COMPOSITION FOR PREVENTING OR TREATING BONE DISEASES” (INDUSTRY FOUNDATION OF CHONNAM NATIONAL UNIVERSITY, priority 2019, published 2022)
